Experimental data taken from PubChem BioAssay (NCI).
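Abbreviation: GI50, concentration required for 50% inhibition of growth. The concentration for full growth arrest is given as TGI.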

Legend:
Experiment in all cases: inhibition of tumour cell growth, NCI panel, 384-well format
CAKI-1 renal = tested on: CAKI-1 renal
NCI-H23 lung = tested on: NCI-H23 lung
U251 glioblastoma = tested on: U251 glioblastoma
TK-10 renal = tested on: TK-10 renal
NCI-H322M lung = tested on: NCI-H322M lung
HT29 colon = tested on: HT29 colon
HCC-2998 colon = tested on: HCC-2998 colon
HS 578T breast = tested on: HS 578T breast
HCT-116 colon = tested on: HCT-116 colon
UACC-62 melanoma = tested on: UACC-62 melanoma
UO-31 renal = tested on: UO-31 renal
OVCAR-4 ovarian = tested on: OVCAR-4 ovarian
SF-539 CNS = tested on: SF-539 CNS
T-47D breast = tested on: T-47D breast
OVCAR-5 ovarian = tested on: OVCAR-5 ovarian
NCI-H522 lung = tested on: NCI-H522 lung
M14 melanoma = tested on: M14 melanoma
HOP-92 NSCLC = tested on: HOP-92 NSCLC
DU-145 prostate = tested on: DU-145 prostate
MOLT-4 leukemia = tested on: MOLT-4 leukemia
MALME-3M melanoma = tested on: MALME-3M melanoma
MDA-MB-231 breast = tested on: MDA-MB-231 breast
MCF7 breast = tested on: MCF7 breast
SNB-75 CNS = tested on: SNB-75 CNS
SW-620 colon = tested on: SW-620 colon
SK-OV-3 ovarian = tested on: SK-OV-3 ovarian
SK-MEL-2 melanoma = tested on: SK-MEL-2 melanoma
A549 NSCLC = tested on: A549 NSCLC
NCI-H460 NSCLC = tested on: NCI-H460 NSCLC
SK-MEL-28 melanoma = tested on: SK-MEL-28 melanoma
SF-295 CNS = tested on: SF-295 CNS
MDA-MB-435 melanoma = tested on: MDA-MB-435 melanoma
786-0 renal = tested on: 786-0 renal
HL-60(TB) leukemia = tested on: HL-60(TB) leukemia
HCT-15 colon = tested on: HCT-15 colon
COLO 205 colon = tested on: COLO 205 colon
UACC-257 melanoma = tested on: UACC-257 melanoma
A498 renal = tested on: A498 renal
SNB-19 CNS = tested on: SNB-19 CNS
LOX IMVI melanoma = tested on: LOX IMVI melanoma
OVCAR-8 ovarian = tested on: OVCAR-8 ovarian
OVCAR-3 ovarian = tested on: OVCAR-3 ovarian
BT-549 breast = tested on: BT-549 breast
PC-3 prostate = tested on: PC-3 prostate
RXF 393 renal = tested on: RXF 393 renal
NCI-H226 lung = tested on: NCI-H226 lung
MDA-MB-468 breast = tested on: MDA-MB-468 breast
KM12 colon = tested on: KM12 colon
K-562 leukemia = tested on: K-562 leukemia
HOP-62 NSCLC = tested on: HOP-62 NSCLC
EKVX NSCLC = tested on: EKVX NSCLC
ACHN renal = tested on: ACHN renal
SF-268 CNS = tested on: SF-268 CNS
SN12C renal = tested on: SN12C renal
IGROV1 ovarian = tested on: IGROV1 ovarian

O=C(CCCCCCC(=O)Nc1ccccc1)NO
GI50 (CAKI-1 renal): 0.704 µM | TGI (CAKI-1 renal): 2.12 µM | GI50 (NCI-H23 lung): 1.37 µM | TGI (NCI-H23 lung): 3.99 µM | GI50 (U251 glioblastoma): 1.3 µM | TGI (U251 glioblastoma): 2.86 µM | GI50 (TK-10 renal): 1.27 µM | TGI (TK-10 renal): 4.85 µM | GI50 (NCI-H322M lung): 1.51 µM | TGI (NCI-H322M lung): 5.81 µM | GI50 (HT29 colon): 1.37 µM | TGI (HT29 colon): 3.12 µM | GI50 (HCC-2998 colon): 1.65 µM | TGI (HCC-2998 colon): 3.98 µM | GI50 (HS 578T breast): 0.736 µM | TGI (HS 578T breast): 2.23 µM | GI50 (HCT-116 colon): 0.461 µM | TGI (HCT-116 colon): 1.73 µM | GI50 (UACC-62 melanoma): 0.467 µM | TGI (UACC-62 melanoma): 1.57 µM | GI50 (UO-31 renal): 2.15 µM | TGI (UO-31 renal): 9.08 µM | GI50 (OVCAR-4 ovarian): 3.15 µM | TGI (OVCAR-4 ovarian): 8.55 µM | GI50 (SF-539 CNS): 2.04 µM | TGI (SF-539 CNS): 12.3 µM | GI50 (T-47D breast): 0.667 µM | TGI (T-47D breast): 2.35 µM | GI50 (OVCAR-5 ovarian): 0.853 µM | TGI (OVCAR-5 ovarian): 3.05 µM | GI50 (NCI-H522 lung): 0.431 µM | TGI (NCI-H522 lung): 1.78 µM | GI50 (M14 melanoma): 1.49 µM | TGI (M14 melanoma): 7.78 µM | GI50 (HOP-92 NSCLC): 1.61 µM | TGI (HOP-92 NSCLC): 3.98 µM | GI50 (DU-145 prostate): 0.729 µM | TGI (DU-145 prostate): 2.32 µM | GI50 (MOLT-4 leukemia): 0.19 µM | TGI (MOLT-4 leukemia): 0.444 µM | GI50 (MALME-3M melanoma): 0.4 µM | TGI (MALME-3M melanoma): 1.46 µM | GI50 (MDA-MB-231 breast): 1.09 µM | TGI (MDA-MB-231 breast): 2.91 µM | GI50 (MCF7 breast): 1.02 µM | TGI (MCF7 breast): 2.49 µM | GI50 (SNB-75 CNS): 0.399 µM | TGI (SNB-75 CNS): 2.63 µM | GI50 (SW-620 colon): 0.948 µM | TGI (SW-620 colon): 2.27 µM | GI50 (SK-OV-3 ovarian): 1.68 µM | TGI (SK-OV-3 ovarian): 4.15 µM | GI50 (SK-MEL-2 melanoma): 0.369 µM | TGI (SK-MEL-2 melanoma): 0.982 µM | GI50 (A549 NSCLC): 1.41 µM | TGI (A549 NSCLC): 4.16 µM | GI50 (NCI-H460 NSCLC): 0.876 µM | TGI (NCI-H460 NSCLC): 4.81 µM | GI50 (SK-MEL-28 melanoma): 0.988 µM | TGI (SK-MEL-28 melanoma): 2.52 µM | GI50 (SF-295 CNS): 1.81 µM | TGI (SF-295 CNS): 6.07 µM | GI50 (MDA-MB-435 melanoma): 1.54 µM | TGI (MDA-MB-435 melanoma): 3.39 µM | GI50 ([…]-0 renal): 2.19 µM | TGI (786-0 renal): 10.4 µM | GI50 (HL-60(TB) leukemia): 0.348 µM | TGI (HL-60(TB) leukemia): 0.733 µM | GI50 (HCT-15 colon): 2.53 µM | TGI (HCT-15 colon): 10.3 µM | GI50 (COLO 205 colon): 1.48 µM | TGI (COLO 205 colon): 2.93 µM | GI50 (UACC-257 melanoma): 0.626 µM | TGI (UACC-257 melanoma): 2.45 µM | GI50 (A498 renal): 1.52 µM | TGI (A498 renal): 3.42 µM | GI50 (SNB-19 CNS): 1.99 µM | TGI (SNB-19 CNS): 5.21 µM | GI50 (LOX IMVI melanoma): 1.45 µM | TGI (LOX IMVI melanoma): 2.79 µM | GI50 (OVCAR-8 ovarian): 0.486 µM | TGI (OVCAR-8 ovarian): 2.4 µM | GI50 (OVCAR-3 ovarian): 1.57 µM | TGI (OVCAR-3 ovarian): 4.24 µM | GI50 (BT-549 breast): 2.49 µM | TGI (BT-549 breast): 7.02 µM | GI50 (PC-3 prostate): 1.48 µM | TGI (PC-3 prostate): 3.93 µM | GI50 (RXF 393 renal): 0.471 µM | TGI (RXF 393 renal): 1.41 µM | GI50 (NCI-H226 lung): 3.93 µM | TGI (NCI-H226 lung): 16.8 µM | GI50 (MDA-MB-468 breast): 0.365 µM | TGI (MDA-MB-468 breast): 1.09 µM | GI50 (KM12 colon): 0.329 µM | TGI (KM12 colon): 10.7 µM | GI50 (K-562 leukemia): 0.408 µM | TGI (K-562 leukemia): 1.49 µM | GI50 (HOP-62 NSCLC): 1.2 µM | TGI (HOP-62 NSCLC): 4.99 µM | GI50 (EKVX NSCLC): 3.8 µM | TGI (EKVX NSCLC): 28.5 µM | GI50 (ACHN renal): 1.33 µM | TGI (ACHN renal): 3.59 µM | GI50 (SF-268 CNS): 1.25 µM | TGI (SF-268 CNS): 2.81 µM | GI50 (SN12C renal): 1.81 µM | TGI (SN12C renal): 4.22 µM | GI50 (IGROV1 ovarian): 0.886 µM | TGI (IGROV1 ovarian): 2.35 µM
